Assays:
[1] = molecular target: Dual specificity protein kinase CLK1 (Homo sapiens) (UniProt P49759); details: Compound concentration 1000.0 nM
[2] = molecular target: Serine/threonine-protein kinase tousled-like 2 (Homo sapiens) (UniProt Q86UE8); details: Compound concentration 1000.0 nM
[3] = molecular target: Alpha-2B adrenergic receptor (Homo sapiens) (UniProt P18089); details: Compound concentration 10.0 uM
[4] = molecular target: Alpha-1D adrenergic receptor (Homo sapiens) (UniProt P25100); details: Compound concentration 10.0 uM
[5] = molecular target: Calcium/calmodulin-dependent protein kinase type II subunit beta (Homo sapiens) (UniProt Q13554); details: Compound concentration 1000.0 nM
[6] = molecular target: Proto-oncogene tyrosine-protein kinase ROS (Homo sapiens) (UniProt P08922); details: Compound concentration 1000.0 nM
[7] = molecular target: G protein-coupled receptor kinase 4 (Homo sapiens) (UniProt P32298); details: Compound concentration 1000.0 nM
[8] = test system: Hepatocyte growth factor receptor (Homo sapiens), P08581 [M1250T]; details: Compound concentration 1000.0 nM
[9] = molecular target: Beta-adrenergic receptor kinase 1 (Homo sapiens) (UniProt P25098); details: Compound concentration 1000.0 nM
[10] = molecular target: Calcium/calmodulin-dependent protein kinase kinase 1 (Homo sapiens) (UniProt Q8N5S9); details: Compound concentration 1000.0 nM
[11] = test system: Epidermal growth factor receptor (Homo sapiens), P00533 [L858R,T790M]; details: Compound concentration 1000.0 nM
[12] = test system: Epidermal growth factor receptor (Homo sapiens), P00533 [T790M]; details: Compound concentration 1000.0 nM
[13] = molecular target: Delta-type opioid receptor (Homo sapiens) (UniProt P41143); details: Compound concentration 10.0 uM
[14] = molecular target: Tyrosine-protein kinase Fyn (Homo sapiens) (UniProt P06241); details: Compound concentration 1000.0 nM
[15] = molecular target: Receptor tyrosine-protein kinase erbB-2 (Homo sapiens) (UniProt P04626); details: Compound concentration 1000.0 nM
[16] = molecular target: Death-associated protein kinase 2 (Homo sapiens) (UniProt Q9UIK4); details: Compound concentration 1000.0 nM
[17] = molecular target: Serine/threonine-protein kinase PRP4 homolog (Homo sapiens) (UniProt Q13523); details: Compound concentration 1000.0 nM
[18] = molecular target: Leukocyte tyrosine kinase receptor (Homo sapiens) (UniProt P29376); details: Compound concentration 1000.0 nM
[19] = molecular target: Tyrosine-protein kinase FRK (Homo sapiens) (UniProt P42685); details: Compound concentration 1000.0 nM
Tyrosine-protein kinase FRK (Homo sapiens), sequence (P42685 whole entry): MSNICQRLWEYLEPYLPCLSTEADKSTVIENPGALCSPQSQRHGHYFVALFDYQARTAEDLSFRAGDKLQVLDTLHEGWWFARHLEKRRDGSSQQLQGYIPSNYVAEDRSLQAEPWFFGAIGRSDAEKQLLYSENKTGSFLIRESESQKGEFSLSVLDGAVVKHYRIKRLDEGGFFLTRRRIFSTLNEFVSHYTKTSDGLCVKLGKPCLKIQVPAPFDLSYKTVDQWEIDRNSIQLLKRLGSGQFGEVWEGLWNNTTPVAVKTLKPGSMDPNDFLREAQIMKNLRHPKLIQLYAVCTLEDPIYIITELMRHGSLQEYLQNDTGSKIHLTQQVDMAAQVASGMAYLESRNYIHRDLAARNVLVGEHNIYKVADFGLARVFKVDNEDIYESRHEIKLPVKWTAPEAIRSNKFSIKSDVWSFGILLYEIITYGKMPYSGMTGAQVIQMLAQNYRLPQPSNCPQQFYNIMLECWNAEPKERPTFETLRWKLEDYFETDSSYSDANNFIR

[20] = molecular target: Serine/threonine-protein kinase Chk1 (Homo sapiens) (UniProt O14757); details: Compound concentration 1000.0 nM
[21] = molecular target: Macrophage colony-stimulating factor 1 receptor (Homo sapiens) (UniProt P07333); details: Compound concentration 1000.0 nM
Macrophage colony-stimulating factor 1 receptor (Homo sapiens), sequence (P07333 whole entry): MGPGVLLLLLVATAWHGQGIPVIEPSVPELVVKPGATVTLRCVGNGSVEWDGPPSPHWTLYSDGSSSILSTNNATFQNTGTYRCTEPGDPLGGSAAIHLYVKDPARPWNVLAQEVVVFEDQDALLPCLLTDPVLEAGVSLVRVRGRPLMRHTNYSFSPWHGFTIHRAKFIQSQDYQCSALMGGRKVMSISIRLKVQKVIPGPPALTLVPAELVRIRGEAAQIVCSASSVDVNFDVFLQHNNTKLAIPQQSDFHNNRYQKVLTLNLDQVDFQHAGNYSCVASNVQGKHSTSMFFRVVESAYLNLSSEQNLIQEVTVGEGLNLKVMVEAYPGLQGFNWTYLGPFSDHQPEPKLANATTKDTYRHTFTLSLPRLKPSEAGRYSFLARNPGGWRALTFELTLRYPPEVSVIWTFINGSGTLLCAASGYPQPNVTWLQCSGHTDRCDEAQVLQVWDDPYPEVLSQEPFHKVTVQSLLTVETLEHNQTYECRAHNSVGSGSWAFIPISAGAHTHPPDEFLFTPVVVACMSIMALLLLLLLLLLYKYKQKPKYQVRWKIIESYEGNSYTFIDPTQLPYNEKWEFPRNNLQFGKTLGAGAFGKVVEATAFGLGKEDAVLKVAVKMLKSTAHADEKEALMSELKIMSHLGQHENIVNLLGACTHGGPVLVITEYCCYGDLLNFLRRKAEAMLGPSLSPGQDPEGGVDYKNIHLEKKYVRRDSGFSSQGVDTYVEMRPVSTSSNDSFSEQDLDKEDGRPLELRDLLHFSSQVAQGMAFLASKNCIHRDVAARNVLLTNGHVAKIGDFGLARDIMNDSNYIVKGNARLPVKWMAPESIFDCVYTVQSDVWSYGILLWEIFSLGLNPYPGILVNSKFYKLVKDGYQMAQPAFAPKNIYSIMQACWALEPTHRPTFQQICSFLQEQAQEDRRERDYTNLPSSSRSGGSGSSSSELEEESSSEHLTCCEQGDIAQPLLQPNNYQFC

[22] = molecular target: Dual specificity mitogen-activated protein kinase kinase 2 (Homo sapiens) (UniProt P36507); details: Compound concentration 1000.0 nM
Dual specificity mitogen-activated protein kinase kinase 2 (Homo sapiens), sequence (P36507 whole entry): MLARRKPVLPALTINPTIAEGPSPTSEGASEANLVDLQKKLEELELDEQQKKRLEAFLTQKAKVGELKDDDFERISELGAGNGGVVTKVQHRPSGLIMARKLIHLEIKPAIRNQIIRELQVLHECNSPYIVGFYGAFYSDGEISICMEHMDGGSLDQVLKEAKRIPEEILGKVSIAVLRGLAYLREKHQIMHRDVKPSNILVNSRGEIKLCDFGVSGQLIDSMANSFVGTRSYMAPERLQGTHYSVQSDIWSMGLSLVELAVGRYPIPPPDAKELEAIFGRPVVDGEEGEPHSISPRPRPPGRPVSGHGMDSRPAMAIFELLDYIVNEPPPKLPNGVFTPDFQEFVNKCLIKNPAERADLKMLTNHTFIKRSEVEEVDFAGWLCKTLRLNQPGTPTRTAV

[23] = molecular target: Cyclin-G-associated kinase (Homo sapiens) (UniProt O14976); details: Compound concentration 1000.0 nM
[24] = molecular target: Ribosomal protein S6 kinase alpha-4 (Homo sapiens) (UniProt O75676); details: Compound concentration 1000.0 nM
[25] = molecular target: NUAK family SNF1-like kinase 1 (Homo sapiens) (UniProt O60285); details: Compound concentration 1000.0 nM
[26] = molecular target: Serine/threonine-protein kinase ULK2 (Homo sapiens) (UniProt Q8IYT8); details: Compound concentration 1000.0 nM
[27] = molecular target: Mitogen-activated protein kinase kinase kinase kinase 4 (Homo sapiens) (UniProt O95819); details: Compound concentration 1000.0 nM
[28] = molecular target: Tyrosine-protein kinase BTK (Homo sapiens) (UniProt Q06187); details: Compound concentration 1000.0 nM
[29] = molecular target: Serine/threonine-protein kinase Nek5 (Homo sapiens) (UniProt Q6P3R8); details: Compound concentration 1000.0 nM
[30] = molecular target: Serine/threonine-protein kinase Nek1 (Homo sapiens) (UniProt Q96PY6); details: Compound concentration 1000.0 nM
[31] = molecular target: Ephrin type-A receptor 4 (Homo sapiens) (UniProt P54764); details: Compound concentration 1000.0 nM
[32] = molecular target: D(1B) dopamine receptor (Homo sapiens) (UniProt P21918); details: Compound concentration 10.0 uM
[33] = molecular target: Serine/threonine-protein kinase DCLK1 (Homo sapiens) (UniProt O15075); details: Compound concentration 1000.0 nM
[34] = test system: Tyrosine-protein kinase ABL1 (Homo sapiens), P00519 [F317L]; details: Compound concentration 1000.0 nM
Tyrosine-protein kinase ABL1 (Homo sapiens), P00519 [F317L], sequence (P00519 whole entry F317L): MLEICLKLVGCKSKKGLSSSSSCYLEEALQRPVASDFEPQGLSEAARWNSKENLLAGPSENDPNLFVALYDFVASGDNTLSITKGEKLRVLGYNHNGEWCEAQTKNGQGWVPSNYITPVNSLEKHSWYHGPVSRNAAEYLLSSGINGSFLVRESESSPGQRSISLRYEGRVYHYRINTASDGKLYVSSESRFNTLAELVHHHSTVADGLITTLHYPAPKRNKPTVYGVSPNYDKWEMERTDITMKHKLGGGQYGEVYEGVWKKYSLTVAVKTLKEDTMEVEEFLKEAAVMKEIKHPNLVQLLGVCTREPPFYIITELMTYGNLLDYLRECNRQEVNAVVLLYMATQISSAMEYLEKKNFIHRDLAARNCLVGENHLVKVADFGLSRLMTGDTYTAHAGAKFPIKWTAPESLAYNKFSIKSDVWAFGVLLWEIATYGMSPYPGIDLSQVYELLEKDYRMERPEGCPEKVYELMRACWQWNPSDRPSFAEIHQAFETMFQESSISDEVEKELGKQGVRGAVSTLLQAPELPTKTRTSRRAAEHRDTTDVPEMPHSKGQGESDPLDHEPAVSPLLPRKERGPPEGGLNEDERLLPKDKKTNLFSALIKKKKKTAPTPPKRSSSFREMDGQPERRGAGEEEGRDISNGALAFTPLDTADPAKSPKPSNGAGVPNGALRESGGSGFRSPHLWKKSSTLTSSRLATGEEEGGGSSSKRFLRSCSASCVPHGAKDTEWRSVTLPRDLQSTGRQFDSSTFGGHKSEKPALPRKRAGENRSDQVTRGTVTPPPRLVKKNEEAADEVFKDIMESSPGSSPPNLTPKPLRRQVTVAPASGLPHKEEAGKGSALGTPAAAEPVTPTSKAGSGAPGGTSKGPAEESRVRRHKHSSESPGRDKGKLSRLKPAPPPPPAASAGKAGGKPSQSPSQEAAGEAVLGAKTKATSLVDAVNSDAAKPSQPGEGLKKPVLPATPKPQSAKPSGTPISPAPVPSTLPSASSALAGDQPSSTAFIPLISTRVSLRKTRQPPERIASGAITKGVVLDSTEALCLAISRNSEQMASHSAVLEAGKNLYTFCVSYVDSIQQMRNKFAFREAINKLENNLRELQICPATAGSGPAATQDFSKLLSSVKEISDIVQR

[35] = molecular target: Serine/threonine-protein kinase TAO3 (Homo sapiens) (UniProt Q9H2K8); details: Compound concentration 1000.0 nM
Serine/threonine-protein kinase TAO3 (Homo sapiens), sequence (Q9H2K8 whole entry): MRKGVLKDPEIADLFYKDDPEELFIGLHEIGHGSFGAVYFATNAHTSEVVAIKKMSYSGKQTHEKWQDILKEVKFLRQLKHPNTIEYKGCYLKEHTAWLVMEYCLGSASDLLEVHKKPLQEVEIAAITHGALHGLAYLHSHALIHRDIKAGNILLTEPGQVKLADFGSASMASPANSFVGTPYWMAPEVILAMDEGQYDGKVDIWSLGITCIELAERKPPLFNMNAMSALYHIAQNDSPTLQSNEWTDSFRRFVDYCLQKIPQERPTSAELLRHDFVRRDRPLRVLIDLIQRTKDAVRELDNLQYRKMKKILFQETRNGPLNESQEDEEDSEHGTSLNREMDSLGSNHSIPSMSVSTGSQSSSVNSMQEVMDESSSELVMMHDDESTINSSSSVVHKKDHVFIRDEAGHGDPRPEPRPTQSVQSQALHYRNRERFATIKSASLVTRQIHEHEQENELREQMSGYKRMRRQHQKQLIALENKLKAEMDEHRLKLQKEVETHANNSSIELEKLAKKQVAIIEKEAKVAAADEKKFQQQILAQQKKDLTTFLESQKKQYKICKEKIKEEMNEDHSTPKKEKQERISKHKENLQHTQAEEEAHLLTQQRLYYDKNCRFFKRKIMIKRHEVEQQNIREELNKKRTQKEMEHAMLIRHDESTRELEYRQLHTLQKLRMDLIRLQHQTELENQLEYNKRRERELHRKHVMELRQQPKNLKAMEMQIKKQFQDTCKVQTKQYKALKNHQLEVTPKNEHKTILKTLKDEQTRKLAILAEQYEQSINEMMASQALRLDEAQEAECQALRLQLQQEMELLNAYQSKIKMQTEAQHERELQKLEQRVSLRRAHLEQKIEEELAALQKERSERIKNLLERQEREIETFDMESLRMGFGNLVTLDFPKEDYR

[36] = molecular target: Serine/threonine-protein kinase mTOR (Homo sapiens) (UniProt P42345); details: Compound concentration 1000.0 nM
[37] = molecular target: Serine/threonine-protein kinase BRSK2 (Homo sapiens) (UniProt Q8IWQ3); details: Compound concentration 1000.0 nM
[38] = molecular target: Serine/threonine-protein kinase haspin (Homo sapiens) (UniProt Q8TF76); details: Compound concentration 1000.0 nM
[39] = molecular target: Phosphatidylinositol 4,5-bisphosphate 3-kinase catalytic subunit gamma isoform (Homo sapiens) (UniProt P48736); details: Compound concentration 1000.0 nM
[40] = molecular target: Calcium/calmodulin-dependent protein kinase type IV (Homo sapiens) (UniProt Q16566); details: Compound concentration 1000.0 nM
[41] = molecular target: Epithelial discoidin domain-containing receptor 1 (Homo sapiens) (UniProt Q08345); details: Compound concentration 1000.0 nM
[42] = molecular target: Serine/threonine-protein kinase Sgk3 (Homo sapiens) (UniProt Q96BR1); details: Compound concentration 1000.0 nM
[43] = molecular target: Tyrosine-protein kinase CSK (Homo sapiens) (UniProt P41240); details: Compound concentration 1000.0 nM
[44] = molecular target: Tyrosine-protein kinase ABL1 (Homo sapiens) (UniProt P00519); details: Compound concentration 1000.0 nM
Tyrosine-protein kinase ABL1 (Homo sapiens), sequence (P00519 whole entry): as the sequence (P00519 whole entry F317L) above, with L317F counted along it

[45] = test system: ALK tyrosine kinase receptor (Homo sapiens), Q9UM73 [L1196M]; details: Compound concentration 1000.0 nM

Dual specificity protein kinase CLK1 (Homo sapiens), sequence (P49759 whole entry, looked up): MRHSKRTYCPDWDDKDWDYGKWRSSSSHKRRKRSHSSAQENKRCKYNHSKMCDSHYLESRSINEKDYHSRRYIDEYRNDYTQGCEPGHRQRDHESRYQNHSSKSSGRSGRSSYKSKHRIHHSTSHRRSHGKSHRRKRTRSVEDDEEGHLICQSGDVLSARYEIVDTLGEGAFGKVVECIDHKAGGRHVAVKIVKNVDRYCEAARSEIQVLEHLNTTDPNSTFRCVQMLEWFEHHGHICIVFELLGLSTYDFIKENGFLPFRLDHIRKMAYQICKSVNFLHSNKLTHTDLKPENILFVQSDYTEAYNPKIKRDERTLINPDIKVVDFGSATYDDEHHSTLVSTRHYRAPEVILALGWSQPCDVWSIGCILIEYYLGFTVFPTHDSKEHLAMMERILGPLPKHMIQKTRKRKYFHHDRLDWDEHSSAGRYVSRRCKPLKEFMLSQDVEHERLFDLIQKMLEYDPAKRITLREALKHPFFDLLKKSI
Alpha-2B adrenergic receptor (Homo sapiens), sequence (P18089 whole entry): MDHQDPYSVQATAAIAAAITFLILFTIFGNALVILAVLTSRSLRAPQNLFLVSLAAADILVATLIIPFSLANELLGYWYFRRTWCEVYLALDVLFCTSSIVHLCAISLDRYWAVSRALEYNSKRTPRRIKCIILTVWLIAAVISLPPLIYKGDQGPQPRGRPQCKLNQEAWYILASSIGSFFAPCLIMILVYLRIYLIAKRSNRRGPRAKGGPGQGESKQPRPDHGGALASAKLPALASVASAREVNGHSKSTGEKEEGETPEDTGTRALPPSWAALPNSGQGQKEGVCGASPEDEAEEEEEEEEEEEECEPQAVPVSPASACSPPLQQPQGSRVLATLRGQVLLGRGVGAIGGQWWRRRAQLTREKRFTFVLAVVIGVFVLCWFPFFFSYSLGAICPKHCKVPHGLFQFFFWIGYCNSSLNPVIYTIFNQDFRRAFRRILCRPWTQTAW

O=C(NC[C@@H]1[C@H]2CN(C(=O)OCc3cc(C(F)(F)F)cc(C(F)(F)F)c3)C[C@@H]12)c1ccc2[nH]nnc2c1 [BI 2545]
residual activity [1]: 87%
residual activity [2]: 90%
inhibition [3]: 25.2%
inhibition [4]: -1.41%
residual activity [5]: 100%
residual activity [6]: 100%
residual activity [7]: 100%
residual activity [8]: 100%
residual activity [9]: 71%
residual activity [10]: 91%
residual activity [11]: 80%
residual activity [12]: 78%
inhibition [13]: 19.6%
residual activity [14]: 85%
residual activity [15]: 100%
residual activity [16]: 85%
residual activity [17]: 100%
residual activity [18]: 98%
residual activity [19]: 83%
residual activity [20]: 92%
residual activity [21]: 95%
residual activity [22]: 84%
residual activity [23]: 91%
residual activity [24]: 86%
residual activity [25]: 87%
residual activity [26]: 97%
residual activity [27]: 100%
residual activity [28]: 100%
residual activity [29]: 94%
residual activity [30]: 44%
residual activity [31]: 82%
inhibition [32]: 21.6%
residual activity [33]: 94%
residual activity [34]: 88%
residual activity [35]: 88%
residual activity [36]: 100%
residual activity [37]: 96%
residual activity [38]: 84%
residual activity [39]: 76%
residual activity [40]: 100%
residual activity [41]: 83%
residual activity [42]: 84%
residual activity [43]: 96%
residual activity [44]: 100%
residual activity [45]: 100%

Cc1nccc(COC(=O)N2C[C@@H]3[C@@H](CNC(=O)c4ccc5[nH]nnc5c4)[C@@H]3C2)n1 [BI 3017]
residual activity [1]: 100%
residual activity [2]: 100%
inhibition [3]: 1.15%
inhibition [4]: -6.43%
residual activity [5]: 90%
residual activity [6]: 100%
residual activity [7]: 100%
residual activity [8]: 100%
residual activity [9]: 100%
residual activity [10]: 100%
residual activity [11]: 100%
residual activity [12]: 91%
inhibition [13]: -1.41%
residual activity [14]: 100%
residual activity [15]: 99%
residual activity [16]: 82%
residual activity [17]: 95%
residual activity [18]: 93%
residual activity [19]: 100%
residual activity [20]: 100%
residual activity [21]: 100%
residual activity [22]: 84%
residual activity [23]: 100%
residual activity [24]: 90%
residual activity [25]: 82%
residual activity [26]: 77%
residual activity [27]: 99%
residual activity [28]: 99%
residual activity [29]: 87%
residual activity [30]: 100%
residual activity [31]: 98%
inhibition [32]: 16.4%
residual activity [33]: 90%
residual activity [34]: 90%
residual activity [35]: 83%
residual activity [36]: 96%
residual activity [37]: 86%
residual activity [38]: 91%
residual activity [39]: 89%
residual activity [40]: 95%
residual activity [41]: 100%
residual activity [42]: 100%
residual activity [43]: 99%
residual activity [44]: 95%
residual activity [45]: 93%

Reference: ChEMBL document CHEMBL4507275, “Data for DCP probe BI-2545” (2021)
